These are literature values, as cited in article PMC9099123 (Clinical and Translational Science, 2022).

One data set has as its system P-gp. Particulars: co-administration with rifampin; cited from earlier work.
In a further data set the test system is BCRP. Particulars: co-administered with rifampin; cited from earlier work.

Turning to `CO[C@H]1/C=C/O[C@@]2(C)Oc3c(C)c(O)c4c(O)c(c(/C=N/N5CCN(C)CC5)c(O)c4c3C2=O)NC(=O)/C(C)=C\C=C\[C@H](C)[C@H](O)[C@@H](C)[C@@H](O)[C@@H](C)[C@H](OC(C)=O)[C@@H]1C` [rifampin], in the data set with P-gp, the “decrease of AUC of digoxin” value is reported as 30% and the “decrease of Cmax of digoxin” value is 58%. Besides, the “decrease in Cmax of rosuvastatin” value with BCRP was 30%.
